Results reported in article PMC4840272 (Neoplasia (New York, N.Y.), 2016).
Where “and” joins values, the source holds several entries; their conditions need not be identical. Identical values can stand only once.

What was measured:
PC9 cells = assay: cells; format: cell-based, human; settings: Homo sapiens, PC-9, 72 h
[1] = stability in culture medium; format: physicochemical
H1650 cells = assay: cells; format: cell-based, human; settings: Homo sapiens, NCI-H1650, 72 h
H460 xenograft = H460 xenograft in nude mice; format: in vivo
topo II = topo II activity assay with nuclear extracts of treated H460 cells; format: cell-based, human; settings: H460 cells treated 72 hours, nuclear extract, plasmid relaxation
H460 cells [2] = assay: modified comet assay of DNA ICLs; format: cell-based, human; settings: 1, 5, and 10 μM, 2 hours
NTUB1/P = assay: cytotoxicity in multiple drug-resistant and cisplatin-resistant cells; format: cell-based
caspases 3 and 7 = assay: Western blot of apoptotic executor proteins; format: cell-based, human; settings: H460 cells
KB/vin10 = assay: cytotoxicity in multiple drug-resistant and cisplatin-resistant cells; format: cell-based
PC9 xenograft = PC9 xenograft in nude mice; format: in vivo; settings: i.v., BO-1978 40 mg/kg, gefitinib 10 mg/kg, daily for 5 consecutive days
[3] = complete blood count and blood chemistry test in ICR mice; format: in vivo; settings: 40 mg/kg i.v.
γH2AX, DNA-PK, and Rad51 = assay: Western blot of DNA damage response; format: cell-based, human; settings: H460 cells, 1 to 4 μM, 24 hours
CL97 cells = assay: cells; format: cell-based, human; settings: Homo sapiens, CL97, 72 h
CL1-5 cells = assay: alamarBlue in vitro cytotoxicity assay; format: cell-based, human; settings: Homo sapiens, CL1-5, 72 h
H460 cells [4] = assay: cell cycle analysis by flow cytometry; format: cell-based, human; settings: 1 to 4 μM, 24 to 72 hours
[5] = tissue distribution in SD rats; format: in vivo; settings: 30 minutes after administration, 10 mg/kg, n = 6
PC9/gef B4 cells = assay: cells; format: cell-based, human
MES-SA/dx5 = assay: cytotoxicity in multiple drug-resistant and cisplatin-resistant cells; format: cell-based
H1650 xenograft = H1650 xenograft in nude mice; format: in vivo; settings: i.v., BO-1978 40 mg/kg, gefitinib 10 mg/kg, daily for 5 consecutive days
[6] = acute toxicity LD50 in ICR mice; settings: male, mouse, in vivo
CCRF-CEM = assay: cytotoxicity in multiple drug-resistant and cisplatin-resistant cells; format: cell-based; settings: Homo sapiens
topo I = topo I (Homo sapiens, UniProt P11387); assay: topo I activity assay with nuclear extracts of treated H460 cells; format: cell-based; settings: H460 cells treated 72 hours, nuclear extract, plasmid relaxation
CCRF/VBL = assay: cytotoxicity in multiple drug-resistant and cisplatin-resistant cells; format: cell-based
KB = assay: as above; format: cell-based; settings: Homo sapiens
MES-SA = assay: as above; format: cell-based; settings: Homo sapiens
NTUB1 = assay: as above; format: cell-based
H1299 cells = assay: cells; format: cell-based, human; settings: Homo sapiens, NCI-H1299, 72 h
11 NSCLC cell lines = assay: cytotoxicity against batch of 11 NSCLC cell lines; format: cell-based; settings: Homo sapiens, read-out: IC50 values against NSCLC cells (range)
CL100 cells = assay: cells; format: cell-based, human; settings: Homo sapiens, 72 h
H460 cells [7] = assay: cells; format: cell-based, human; settings: Homo sapiens, NCI-H460, 72 h
[8] = whole-blood pharmacokinetics in SD rats; format: in vivo
stability in rat plasma = format: in vitro ADME
PC9/gef B4 xenograft = PC9/gef B4 xenograft in nude mice; format: in vivo; settings: i.v., BO-1978 40 mg/kg, gefitinib 10 mg/kg, daily for 5 consecutive days
pEGFP-N1 plasmid DNA = assay: alkaline gel shift assay of DNA cross-linking; format: biochemical; settings: 0.125 to 2 μM, 2 hours, 37°C
H1975 xenograft = H1975 xenograft in nude mice; format: in vivo; settings: i.v., BO-1978 40 mg/kg, gefitinib 10 mg/kg, daily for 5 consecutive days
H1975 cells = assay: cells; format: cell-based, human; settings: Homo sapiens, NCI-H1975, 72 h
H1650-Luc cells = assay: orthotopic lung tumor model, IVIS; format: in vivo, nude mice; settings: BO-1978 40 mg/kg, gefitinib 10 mg/kg, daily for 5 consecutive days
A549 cells = assay: cells; format: cell-based, human; settings: Homo sapiens, A549, 72 h
CL141T cells = assay: cells; format: cell-based, human; settings: Homo sapiens, 72 h
[9] = histopathological examination of major organs in ICR mice; format: in vivo; settings: 40 mg/kg i.v., days 2 and 14, histopathology and blood tests
[10] = male, SD, rat, whole blood, iv, 10 mg/kg

topo I, sequence (P11387 whole entry): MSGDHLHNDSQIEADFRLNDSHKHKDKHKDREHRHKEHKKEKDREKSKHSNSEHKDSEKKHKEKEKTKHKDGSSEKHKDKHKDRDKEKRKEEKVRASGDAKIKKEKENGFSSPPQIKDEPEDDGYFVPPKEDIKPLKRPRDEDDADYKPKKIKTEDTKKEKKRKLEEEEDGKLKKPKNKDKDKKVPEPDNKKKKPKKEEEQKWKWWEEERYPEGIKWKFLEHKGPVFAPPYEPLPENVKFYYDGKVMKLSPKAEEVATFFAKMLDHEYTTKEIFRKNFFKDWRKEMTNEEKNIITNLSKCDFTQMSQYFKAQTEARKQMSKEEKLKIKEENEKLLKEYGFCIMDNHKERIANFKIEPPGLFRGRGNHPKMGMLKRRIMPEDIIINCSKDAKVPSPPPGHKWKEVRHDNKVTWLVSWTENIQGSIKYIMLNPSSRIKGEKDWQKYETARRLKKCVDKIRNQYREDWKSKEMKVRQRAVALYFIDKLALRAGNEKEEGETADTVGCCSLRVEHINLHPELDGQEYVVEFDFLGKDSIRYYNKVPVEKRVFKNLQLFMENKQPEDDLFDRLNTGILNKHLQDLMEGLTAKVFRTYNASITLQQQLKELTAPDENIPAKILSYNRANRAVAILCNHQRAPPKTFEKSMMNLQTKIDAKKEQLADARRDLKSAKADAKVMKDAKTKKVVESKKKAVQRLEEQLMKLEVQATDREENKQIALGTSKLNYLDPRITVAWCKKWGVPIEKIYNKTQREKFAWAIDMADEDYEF

CCc1c(CO)c(CO)c2n1Cc1c(c3ccccc3n1C)C2 [BO-1978, [3-ethyl-6-methyl-6,11-dihydro-5H-indolizino[6,7-b]indole-1,2-diyl]dimethanol]
IC50 (PC9 cells): 1.41 ± 0.37 µM | half-life [1]: 36.8 ± 2.19 h | IC50 (H1650 cells): 3.5 ± 0.1 µM | body weight loss (H460 xenograft; H460 xenograft mice, BO-1978 40 mg/kg QDx5, cisplatin 6 mg/kg every 4 days x3): negligible | H460 xenograft tumor size suppressed/reduced to (H460 xenograft; i.v., BO-1978 40 mg/kg QDx5, cisplatin 6 mg/kg every 4 days x3): approximately 65% | maximal tolerant dose (H460 xenograft; nude mice, i.v., given for 5 consecutive days (QDx5)): 40 mg/kg | concentration at which topo II activity was significantly inhibited (topo II): greater than 0.5 μM | tail moment in X-ray irradiated H460 cells (DNA ICLs) (H460 cells [2]): dose-dependently induced shortened tail moments | IC50 (NTUB1/P; NTUB1): 1.92 ± 0.39 µM | resistance factor (NTUB1/P; NTUB1/P vs NTUB1): 1.68 x | cleavage of caspases 3 and 7 (caspases 3 and 7): dose- and time-dependently induced cleavage of caspases 3 and 7 | IC50 (KB/vin10; Homo sapiens, KB-VIN10): 1.56 ± 0.51 µM | resistance factor (KB/vin10; KB/vin10 vs KB): 0.79 x | suppression of xenograft tumor growth (PC9 xenograft): 55% | ALP ([3]; 14 Days): 233.50 ± 36.74 U/l | ALT ([3]; 14 Days): 44.87 ± 19.72 U/l | AST ([3]; 14 Days): 86.14 ± 25.25 U/l | BASO ([3]; 14 Days): 0.09 ± 0.03 10^9/l | BUN ([3]; 14 Days): 23.95 ± 1.71 mg/dL | CRE ([3]; 14 Days): 0.17 ± 0.05 mg/dL | EOS ([3]; 14 Days): 0.12 ± 0.13 10^9/l | HCT ([3]; 14 Days): 44.02 ± 1.18% | HGB ([3]; 14 Days): 12.78 ± 0.42 g/dL | LYM ([3]; 14 Days): 2.86 ± 0.88 10^9/l | MCH ([3]; 14 Days): 16.38 ± 0.52 pg | MCHC ([3]; 14 Days): 29.05 ± 0.46 g/dL | MCV ([3]; 14 Days): 56.40 ± 1.69 fL | MONO ([3]; 14 Days): 0.11 ± 0.09 10^9/l | NEU ([3]; 14 Days): 0.82 ± 0.47 10^9/l | PLT ([3]; 14 Days): 958.00 ± 178.31 10^9/l | RBC ([3]; 14 Days): 7.81 ± 0.33 10^12/l | WBC ([3]; 14 Days): 4.00 ± 0.97 10^9/l | ALP ([3]; 48 Hours): 297.50 ± 72.11 U/l | ALT ([3]; 48 Hours): 156.25 ± 236.88 U/l | AST ([3]; 48 Hours): 220.27 ± 153.45 U/l | BASO ([3]; 48 Hours): 0.06 ± 0.03 10^9/l | BUN ([3]; 48 Hours): 19.48 ± 2.03 mg/dL | CRE ([3]; 48 Hours): 0.18 ± 0.15 mg/dL | EOS ([3]; 48 Hours): 0.05 ± 0.04 10^9/l | HCT ([3]; 48 Hours): 41.13 ± 1.95% | HGB ([3]; 48 Hours): 11.96 ± 0.53 g/dL | LYM ([3]; 48 Hours): 1.83 ± 1.17 10^9/l | MCH ([3]; 48 Hours): 16.75 ± 0.45 pg | MCHC ([3]; 48 Hours): 29.07 ± 0.40 g/dL | MCV ([3]; 48 Hours): 57.61 ± 1.27 fL | MONO ([3]; 48 Hours): 0.05 ± 0.04 10^9/l | NEU ([3]; 48 Hours): 0.45 ± 0.21 10^9/l | PLT ([3]; 48 Hours): 786.10 ± 90.60 10^9/l | RBC ([3]; 48 Hours): 7.14 ± 0.38 10^12/l | WBC ([3]; 48 Hours): 2.43 ± 1.19 10^9/l | expression of γH2AX, DNA-PK, and Rad51 (γH2AX, DNA-PK, and Rad51): dose-dependently increased the expression levels | IC50 (CL97 cells): 1.25 ± 0.18 µM | IC50 (CL1-5 cells): 1.47 ± 0.53 µM | cell cycle interference (H460 cells [4]): S phase delay at 24 hours and then G2 arrest at 72 hours | concentration in Blood [5]: 1.59 ± 0.48 μg/ml or μg/g | concentration in Brain [5]: 3.97 ± 0.96 μg/ml or μg/g | concentration in Heart [5]: 1.79 ± 0.72 μg/ml or μg/g | concentration in Kidney [5]: 2.19 ± 0.12 μg/ml or μg/g | concentration in Liver [5]: 10.71 ± 1.96 μg/ml or μg/g | concentration in Lung [5]: 3.13 ± 1.44 μg/ml or μg/g | concentration in Spleen [5]: 0.48 ± 0.08 μg/ml or μg/g | IC50 (PC9/gef B4 cells; Homo sapiens, 72 h): 1.58 ± 0.33 µM | resistance factor of PC9/gef B4 to PC9 cells (PC9/gef B4 cells; IC50 ratio, number in brackets): 1.12 | IC50 (MES-SA/dx5; Homo sapiens, MES-SA/Dx5): 0.47 ± 0.12 µM | resistance factor (MES-SA/dx5; MES-SA/dx5 vs MES-SA): 0.61 x | suppression of xenograft tumor growth (H1650 xenograft): 30% | LD50 [6]: 93.7 mg/kg | IC50 (CCRF-CEM): 0.46 ± 0.12 µM | concentration at which topo I activity was significantly inhibited (topo I): greater than 0.5 μM | IC50 (CCRF/VBL): 0.41 ± 0.03 µM | IC50 (KB): 1.96 ± 0.39 µM | IC50 (MES-SA): 0.77 ± 0.08 µM | IC50 (NTUB1): 1.14 ± 0.32 µM | IC50 (H1299 cells): 3.02 ± 0.65 µM | IC50 (11 NSCLC cell lines): 1.06 to 3.5 µM | IC50 (CL100 cells): 1.51 ± 0.3 µM | IC50 (H460 cells [7]): 1.06 ± 0.11 µM | systemic clearance as share of cardiac output of rats ([8]; cardiac output approximately 296 ml/min per kg): approximately 19% | systemic clearance ([8]; male SD rats, single i.v. 10 mg/kg): 56.24 ± 14.90 ml/min per kg | AUC(0-t) [8, 10]: 3140 ng·h/mL | C0 [8, 10]: 8630 ng/mL and 27.8 µM | MRT [8, 10]: 0.456 h | half-life [8, 10]: 0.392 ± 0.118 h | half-life (stability in rat plasma): 89.4 ± 5.62 h | suppression of xenograft tumor growth (PC9/gef B4 xenograft): 73% | formation of DNA ICLs in plasmid DNA (pEGFP-N1 plasmid DNA): formed DNA ICLs | suppression of xenograft tumor growth (H1975 xenograft): 26% | IC50 (H1975 cells): 2.34 ± 0.18 µM | orthotopic growth of H1650-Luc cells (H1650-Luc cells): effectively suppressed | IC50 (A549 cells): 3.15 ± 1.2 µM | IC50 (CL141T cells): 1.32 ± 0.47 µM | toxic effects in the major organs [9]: did not cause apparent toxic effects in the major organs except for slight and recoverable liver damage
